Biological target: T1, Liver GK (Homo sapiens, UniProt P35557)
T1 construct: (His)6; made in house; host or cells: Escherichia coli
T1 sequence (P35557 1-466 isoform P35557-2): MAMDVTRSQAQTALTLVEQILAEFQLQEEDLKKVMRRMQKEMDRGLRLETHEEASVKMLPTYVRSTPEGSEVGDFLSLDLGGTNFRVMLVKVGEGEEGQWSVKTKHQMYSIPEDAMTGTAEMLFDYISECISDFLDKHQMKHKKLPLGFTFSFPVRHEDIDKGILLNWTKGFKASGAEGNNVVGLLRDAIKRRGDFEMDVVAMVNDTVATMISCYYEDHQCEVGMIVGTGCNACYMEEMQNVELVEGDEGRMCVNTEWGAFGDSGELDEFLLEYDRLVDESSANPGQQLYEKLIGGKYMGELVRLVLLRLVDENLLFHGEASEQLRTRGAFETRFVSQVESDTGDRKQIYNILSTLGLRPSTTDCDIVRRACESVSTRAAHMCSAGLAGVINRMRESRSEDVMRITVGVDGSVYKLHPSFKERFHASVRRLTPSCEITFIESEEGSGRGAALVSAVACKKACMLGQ
Assay: Glucokinase enzyme assay, liver GK
Assay type: biochemical
Details: for EC50: concentration that produces 50% activation above the vehicle control; for activation at 50 µM: percentage increase in GK activity above vehicle control, compound 50 μM, 12 mM glucose; for EC100%: concentration that produces 100% activation above the vehicle control
From the text: An enzymatic Glucokinase (GK) assay using purified recombinant human liver/pancreas enzyme was used to evaluate the effects of potential small molecule modulators.
In this assay, GK catalyzes glucose phosphorylation in the presence of ATP. The product of this reaction, glucose-6-phosphate, was then oxidized by an excess of glucose-6-phosphate dehydrogenase to produce gluconate-6-phosphate with concomitant reduction of nicotinamide adenine dinucleotide (NAD). […] Human GK (Liver/Pancreas) was expressed in Escherichia coli as a (His) 6-tagged fusion protein and was purified by metal chelate affinity chromatography. The assay was performed in a final incubation volume of 80 μl in a 96-well clear low UV absorption plates. The incubation mixture consisted of 25 mM HEPES, 2 mM MgSO4, 1 mM dithiothreotol (DTT), 1 mg/mL bovine serum albumin (BSA), 1 mM ATP, 1 mM NAD, and 12 mM glucose, 10 units per mL glucose-6-phosphate dehydrogenase, and +/−300 ng per mL GK. For determination of the affinity (Km) and Vmax, different concentrations of glucose ranging from 0.5 mM to 40 mM were used in the assay; see Grimsby, J., Sarabu, R.; Grippo, J. F.; et. al. Science 2003, 301, 370-373. Production of reduced NAD (Nicotinamide Adenine Dinucleotide) was measured as changes in absorption at 340 nm in 96-well plate reader (Envision model #2101 Multilabel Plate reader). % Activation @ 50 μM was calculated as the percentage increase in GK activity above the vehicle control with the effective concentration of the compound being 50 μM. EC50% (μM) was calculated as the effective concentration of the compound that produces 50% activation above the vehicle control, and EC100% (μM) was calculated as the effective concentration of the compound that produces 100% activation above the vehicle control.

Compound	EC50	activation at 50 µM	EC100%
COc1ccc(CN2C(=O)C(C)=C(C)C2SCC(=O)Nc2ccccn2)cc1OC (stereo not drawn) [Compound 11, 2-[1-(3,4-Dimethoxy-benzyl)-3,4-dimethyl-5-oxo-2,5-dihydro-1H-pyrrol-2-ylsulfanyl]-N-pyridin-2-yl-acetamide]	2.41 µM	243%	5.83 µM
COc1ccc(CN2C(=O)C(c3ccccc3)=CC2SCC(=O)Nc2nccs2)cc1 (stereo not drawn) [Compound 3, 2-[1-(4-Methoxy-benzyl)-5-oxo-4-phenyl-2,5-dihydro-1H-pyrrol-2-ylsulfanyl]-N-thiazol-2-yl-acetamide]	–	64.9%	–
COc1ccc(CN2C(=O)C(C)=C(C)C2SCC(=O)Nc2ccc(C)cn2)cc1 (stereo not drawn) [Compound 9, 2-[1-(4-Methoxy-benzyl)-3,4-dimethyl-5-oxo-2,5-dihydro-1H-pyrrol-2-ylsulfanyl]-N-(5-methyl-pyridin-2-yl)-acetamide]	1.4 µM	215%	4.9 µM
CC1=C(C)C(SCC(=O)Nc2ccccn2)N(Cc2ccc(OC(F)F)cc2)C1=O (stereo not drawn) [Compound 16, 2-[1-(4-Difluoromethoxy-benzyl)-3,4-dimethyl-5-oxo-2,5-dihydro-1H-pyrrol-2-ylsulfanyl]-N-pyridin-2-yl-acetamide]	6.76 µM	166%	17.01 µM
CCOC(=O)Cc1csc(NC(=O)CSC2C(C)=C(C)C(=O)N2Cc2ccc(OC)cc2)n1 (stereo not drawn) [Compound 7, (2-{2-[1-(4-Methoxy-benzyl)-3,4-dimethyl-5-oxo-2,5-dihydro-1H-pyrrol-2-ylsulfanyl]-acetylamino}-thiazol-4-yl)-acetic acid ethyl ester]	11.6 µM	114%	38.9 µM
COc1ccc(CN2C(=O)C(C)=C(C)C2SCC(=O)Nc2ccccn2)c(OC)c1 (stereo not drawn) [Compound 10, 2-[1-(2,4-Dimethoxy-benzyl)-3,4-dimethyl-5-oxo-2,5-dihydro-1H-pyrrol-2-ylsulfanyl]-N-pyridin-2-yl-acetamide]	12.2 µM	128%	39.92 µM

Continued by falling EC50, values first:

EC50	activation at 50 µM	EC100%	Compound
10 µM	122%	37.08 µM	COc1ccc(CN2C(=O)C(C)=CC2SCC(=O)Nc2ccccn2)cc1 (stereo not drawn) [Compound 15, 2-[1-(4-Methoxy-benzyl)-4-methyl-5-oxo-2,5-dihydro-1H-pyrrol-2-ylsulfanyl]-N-pyridin-2-yl-acetamide]
9.4 µM	169%	–	COc1ccc(CN2C(=O)C(C)=C(C)C2SCC(=O)Nc2nccs2)cc1 (stereo not drawn) [Compound 2, 2[1-(4-Methoxy-benzyl)-3,4-dimethyl-5-oxo-2,5-dihydro-1H-pyrrol-2-ylsulfanyl]-N-thiazol-2-yl-acetamide]
6.3 µM	175%	20.1 µM	COc1ccc(CN2C(=O)C(C)=C(C)C2SCC(=O)Nc2cnccn2)cc1 (stereo not drawn) [Compound 6, 2-[1-(4-Methoxy-benzyl)-3,4-dimethyl-5-oxo-2,5-dihydro-1H-pyrrol-2-ylsulfanyl]-N-pyrazin-2-yl-acetamide]
3.3 µM	222%	8.3 µM	COc1ccc(CN2C(=O)C(C)=C(C)C2SCC(=O)Nc2ccccn2)cc1 (stereo not drawn) [Compound 5, 2-[1-(4-Methoxy-benzyl)-3,4-dimethyl-5-oxo-2,5-dihydro-1H-pyrrol-2-ylsulfanyl]-N-pyridin-2-yl-acetamide]
2.9 µM	198%	8.72 µM	CC1=C(C)C(SCC(=O)Nc2ccccn2)N(Cc2ccc(F)cc2)C1=O (stereo not drawn) [Compound 12, 2-[1-(4-Fluoro-benzyl)-3,4-dimethyl-5-oxo-2,5-dihydro-1H-pyrrol-2-ylsulfanyl]-N-pyridin-2-yl-acetamide]
2.72 µM	169%	9.77 µM	COc1ccc(CN2C(=O)C(C)=C(C)C2SCC(=O)Nc2ccc(Cl)cn2)cc1 (stereo not drawn) [Compound 8, N-(5-Chloro-pyridin-2-yl)-2-[1-(4-methoxy-benzyl)-3,4-dimethyl-5-oxo-2,5-dihydro-1H-pyrrol-2-ylsulfanyl]-acetamide]

— patent publication US8680122B2, “Substituted pyrrolones as allosteric modulators of glucokinase” (Janssen Pharmacetica N.V., priority 2005, dated 2014)
